From PMC9787607, “A Novel Protocol for the Synthesis of 1,2,4-Oxadiazoles Active against Trypanosomatids and Drug-Resistant Leukemia Cell Lines” (Tropical Medicine and Infectious Disease, 2022)
Structures can show the parent of a compound that is named as a salt.

Tests used:
[1] = system: Lucena-1 (K562/VCR); test: cells; format: cell-based, human; conditions: reference drugs, Lucena-1/K562, ratio of EC50 values from ref 64
Experimental: (§1) The CML cell lines K562, Lucena-1 (K562/VCR), and FEPS (K562/DNR) were cultured in RPMI-1640 medium supplemented with 25 mM HEPES and 2 g L^−1 sodium bicarbonate adjusted to pH 7.4 with NaOH, 100 U penicillin and […] streptomycin. All media were supplemented with 10% FBS. Dr. Vivian M. Rumjanek (Instituto de Bioquímica Médica, UFRJ, Brazil) kindly donated Lucena-1 and FEPS cells. Briefly, K562 cells were exposed to increasing concentrations of the chemotherapeutic drugs vincristine sulfate (VCR) and daunorubicin hydrochloride (DNR) (both from Sigma-Aldrich), as described previously. Lucena-1 (K562/VCR) and FEPS (K562/DNR) cells were cultured in the presence of either 60 nM VCR or 500 nM DNR to maintain the MDR phenotypes. For subcultures, cells were harvested every three days followed by washing with cold FBS, and a final concentration of 2 × 10^4 cells mL^−1 was maintained at 37 °C in 5% CO2.
(§2) Cell viability was determined by the 3-(4,5-dimethylthiazol-2-yl)-2,5-diphenyltetrazolium (MTT) colorimetric assay. CML cells (2 × 10^4 cells·mL^−1) were incubated for 72 h at 37 °C, followed by treatment with compounds at a range of concentrations (100–1 μM). Negative controls were prepared with 0.5% DMSO. An MTT salt solution was added to each well to a final concentration of 0.5 g·L^−1, and plates were incubated at 37 °C in 5% CO2 for 3 h. After centrifugation, 200 μL DMSO was added to dissolve the dark-blue formazan crystals formed by MTT reduction. Absorbance was measured on a microplate reader at 570 nm, which is directly proportional to formazan contents and indicative of living cells.
(§3) The percent cell or parasite viability was calculated by the formula: % viability = [(A − P)/(N − P)] × 100, A = absorbance of specific well, P = positive control, N = negative control. Determination of half-maximal effective concentrations (EC50), calculated by logarithmic regression, and significance analysis (p < 0.05), using ANOVA and Dunnett’s test, by GraphPad Prism 7.0 software. The results are expressed as the mean and standard deviation (SD) of three independent experiments.

[2] = system: FEPS (K562/DNR); test: MTT cytotoxicity to MDR CML cell line FEPS; format: cell-based, human; conditions: reference drugs, FEPS/K562, ratio of EC50 values from ref 64
Experimental: as §1, §2, §3

[3] = system: K562; parameters: method as in PMID 32229586; conditions: reference drugs; cited from earlier work
[4] = system: Lucena-1 (K562/VCR); parameters: method as in PMID 32229586; conditions: reference drugs; cited from earlier work
[5] = system: FEPS (K562/DNR); parameters: method as in PMID 32229586; conditions: reference drugs; cited from earlier work
[6] = system: A375; parameters: method as in doi:10.1134/S1070363218050304; conditions: cited from earlier work
[7] = system: MCF-7; parameters: method as in doi:10.1134/S1070363218050304; conditions: cited from earlier work
[8] = system: ACHN; parameters: method as in doi:10.1134/S1070363218050304; conditions: cited from earlier work
[9] = system: HL-60; parameters: method as in PMID 20411988; conditions: sensitive promyelocytic leukemia; cited from earlier work
[10] = system: HL-60/VCR; parameters: method as in PMID 20411988; conditions: drug-resistant promyelocytic leukemia; cited from earlier work
[11] = system: Trypanosoma brucei rhodesiense; parameters: method as in PMID 22217867; conditions: cited from earlier work
[12] = system: T. cruzi; parameters: method as in PMID 22217867; conditions: cited from earlier work
[13] = system: Leishmania donovani; parameters: method as in PMID 22217867; conditions: cited from earlier work
[14] = system: T. cruzi amastigotes; parameters: method as in PMID 22727447; conditions: cited from earlier work
[15] = system: Leishmania amazonensis; parameters: method as in PMID 19962891; conditions: cited from earlier work
[16] = system: T. cruzi trypomastigotes; parameters: method as in PMID 23006639; conditions: cited from earlier work
[17] = system: T. cruzi; parameters: method as in PMID 23006639; conditions: cited from earlier work
[18] = system: L. donovani; parameters: method as in PMID 15142541; conditions: cited from earlier work
[19] = system: T. brucei; parameters: method as in PMID 15142541; conditions: cited from earlier work
[20] = system: PC3; parameters: method as in PMID 15142541; conditions: cited from earlier work
[21] = system: Vero; parameters: method as in PMID 15142541; conditions: cited from earlier work

## COc1cccc2c1C(=O)c1c(O)c3c(c(O)c1C2=O)C[C@@](O)(C(C)=O)C[C@@H]3O[C@H]1C[C@H](N)[C@H](O)[C@H](C)O1 [DNR, daunorubicin hydrochloride]
[1]
  RR (relative resistance) Lucena-1: 37.3
[2]
  RR (relative resistance) FEPS: 78.6
[3]
  EC50: 0.082 ± 0.001 µM
[4]
  EC50: 3.06 ± 0.87 µM
[5]
  EC50: 6.45 ± 1.27 µM

## COc1cc(-c2nc(-c3c(Cl)nc4sc(C)nn34)no2)cc(OC)c1OC [Compound 6]
[6]
  IC50: 1.22 µM
[7]
  IC50: 0.23 µM
[8]
  IC50: 0.11 µM

## CC[C@]1(O)C[C@H]2CN(CCc3c([nH]c4ccccc34)[C@@](C(=O)OC)(c3cc4c(cc3OC)N(C=O)[C@H]3[C@@](O)(C(=O)OC)[C@H](OC(C)=O)[C@]5(CC)C=CCN6CC[C@]43[C@@H]65)C2)C1 [VCR, vincristine sulfate]
[1]
  RR (relative resistance) Lucena-1: 15.7
[2]
  RR (relative resistance) FEPS: 19.4
[3]
  EC50: 0.054 ± 0.005 µM
[4]
  EC50: 0.85 ± 0.12 µM
[5]
  EC50: 1.05 ± 0.07 µM

## COc1cccc(/C=C/C(=O)Nc2cc(OC)c(OC)c(OC)c2)c1 [Compound 2]
[9]
  IC50: 3.1 µM
[10]
  IC50: 11.6 µM

## Cc1ccc(-c2noc(CN3N=NC4C(=O)N(c5ccccc5)C(=O)C43)n2)cc1 (centres unmarked) [Compound 7]
[11]
  IC50: 21.6 µM
[12]
  IC50: 100 µM
[13]
  IC50: 5.7 µM

## O=C(/C=C/c1ccc2c(c1)OCO2)c1cccs1 [Compound 4]
[14]
  IC50: 5.6 µM

## C=COc1cc(OC)c(C(=O)/C=C/c2ccncc2)c(OC=C)c1 [Compound 3]
[15]
  IC50: 0.6 µM

## O=C(NN=Cc1ccc2c(c1)OCO2)c1nc(-c2ccc(Cl)cc2)no1 [conjugate 9]
[16]
  IC50: 3.5 µM
[17]
  effect on parasitemia in infected mice: reduce parasitemia

## N#CSCc1nc(-c2ccc(Cl)c(Cl)c2)no1 [Compound 8]
[18]
  IC50: 2.3 µM
[19]
  IC50: 5.2 µM
[20]
  IC50: 3.9 µM
[21]
  IC50: 70 µM
